Molecular target: T1, human IDO1 (Homo sapiens, UniProt P14902)
Assay: Human IDO-1 inhibitory activity in HEK cells (human IDO1/HEK293 cellular assay)
Format: cell-based
Parameters: expressed in transfected cells
Details: HEK human IDO-1 cellular assay; 500 nM reference standard = 100% inhibition, DMSO = 0%
Description: They were cultured in medium (DMEM with 10% FBS) containing 1 mg/ml G418 for two weeks.
The human IDO1/HEK293 cells were seeded at 10,000 cells per 50 μL per well with RPMI/phenol red free media contains 10% FBS in a 384-well black wall clear bottom tissue culture plate (Matrix Technologies LLC) 100 nL of certain concentration of compound was then added to each well using ECHO liquid handling systems. The cells were incubated for 20 hours in 37° C. incubator with 5% CO2.
The compound treatments were stopped by adding trichloroacetic acid (Sigma-Aldrich) to a final concentration at 0.2%. The cell plate was further incubated at 50° C. for 30 minute. The equal volume supernatant (20 μL) and 0.2% (w/v) Ehrlich reagent (4-dimethylaminobenzaldehyde, Sigma-Aldrich) in glacial acetic acid were mixed in a new clear bottom 384-well plate. This plate was then incubated at room temperature for 30 minute. The absorbance at 490 nm was measured on Envision plate reader.

T1 sequence (P14902 whole entry): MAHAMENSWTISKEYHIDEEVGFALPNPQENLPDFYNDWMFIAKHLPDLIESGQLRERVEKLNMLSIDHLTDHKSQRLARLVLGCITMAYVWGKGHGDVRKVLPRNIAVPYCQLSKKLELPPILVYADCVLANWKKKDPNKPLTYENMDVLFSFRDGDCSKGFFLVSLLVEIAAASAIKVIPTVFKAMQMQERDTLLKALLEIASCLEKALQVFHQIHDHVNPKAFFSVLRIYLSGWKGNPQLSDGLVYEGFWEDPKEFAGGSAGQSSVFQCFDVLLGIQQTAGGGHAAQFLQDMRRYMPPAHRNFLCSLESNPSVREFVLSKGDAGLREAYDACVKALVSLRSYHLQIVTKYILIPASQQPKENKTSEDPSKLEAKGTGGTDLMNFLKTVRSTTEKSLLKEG

“3-(4-((1,1- dioxidotetrahydro-2H- thiopyran-4-yl)(ethyl) amino)-3-((4-fluorophenyl) amino)phenyl)-4- isopropoxybutanoic acid [Example 300]” and “3-(4-((1,1-dioxidotetrahydro-2H- thiopyran-4-yl)(ethyl)amino)-3-((4- fluorophenyl)amino)phenyl)-4- isopropoxybutanoic acid [Example 338]” cannot be ordered by IC50: under 0.05 µM for the first, under 0.05 µM for the second.

CCC(CC(=O)O)c1cc(F)c(N(CC(C)C)C2CCCCC2)c(NC(=O)Nc2ccc(Cl)cc2F)c1 (racemic) [Example 1090, 3-(3-(3-(4-chloro-2-fluorophenyl)ureido)-4-(cyclohexyl(isobutyl)amino)-5-fluorophenyl)pentanoic acid] and CCC(CC(=O)O)c1ccc(N(CC)C2CCCOC2)c(Nc2ccc(Cl)cc2)c1 (single isomer, unassigned) [Example 60 E1, 3-(3-((4-Chlorophenyl)amino)-4-(ethyl(tetrahydro-2H-pyran-3-yl)amino)phenyl)pentanoic Acid] cannot be ordered by IC50: under 0.005 µM for the first, under 0.005 µM for the second.

Compound CC[C@H](CC(=O)O)c1ccc(N2CCOC[C@@H]2C(C)C)c(Nc2ccc(F)cc2)c1 (single isomer, unassigned) [Example 90] has an IC50 of under 0.05 µM.

Molecular target: T1, human IDO1
Assay: Human IDO-1 inhibitory activity in Hela cells (interferon-gamma stimulated)
Format: cell-based
Parameters: endogenous in cells; host or cells: HeLa cells stimulated with interferon-gamma
Details: 18 hours, unstimulated wells = 100% inhibition
Description: HeLa cells were seeded at 20,000 cells per 30 μL per well with RPMI/phenol red free media containing 10% FBS in a 384-well tissue culture plate (black with clear bottoms). 50 nL of compound was added to cells and incubated at 37° C. for one hour. 20 μL of the recombinant human Interferon-gamma (R&D System, Cat. #285-IF, at final concentration of 10 ng/ml) or recombinant murine Interferon-gamma (PEPROTECH® Inc., Cat. #315-05, final concentration of 5 ng/ml) was added to activate IDO signaling. The cells were incubated for 18 hours in 37° C. incubator with 5% CO2.
Compound treatment was stopped by adding 5 μl trichloroacetic acid to a final concentration of 3%. Subsequently, the cell plate was further incubated at 50° C. for 30 minute. An equal volume supernatant (20 μL) and 2% (w/v) Ehrlich reagent (4-dimethylaminobenzaldehyde) in glacial acetic acid were mixed in a new clear bottom 384-well plate. This plate was incubated at room temperature for 30 minutes. Absorbance at 490 nm was measured on Envision plate reader.
Compound IC50 values were calculated using counts from unstimulated (no INF-gamma treatment) wells as 100% inhibition. INF-gamma treatment without compound treatment as 0% inhibition.

Going from CC(CC(=O)O)c1ccc(N2C[C@@H](C)O[C@@H](C)C2)c(NC(=O)Nc2ccc(Cl)cc2F)c1 (single isomer, unassigned) [Example 749 Enantiomer 2] to CCN(c1cc(F)c(C(COC)CC(=O)O)cc1Nc1ccc(C#N)c(F)c1)C1CCOCC1 (single isomer, unassigned) [Example 853, 3-(5-((4-cyano-3-fluorophenyl)amino)-4-(ethyl(tetrahydro-2H-pyran-4-yl)amino)-2-fluorophenyl)-4-methoxybutanoic acid], the IC50 falls from over 0.05 µM to under 0.005 µM. The second is the more potent here.

CCN(c1cc(F)c(C(COC)CC(=O)O)cc1Nc1ccc(C#N)cc1F)C1CCOCC1 (single isomer, unassigned) [Example 854, 3-(5-((4-cyano-2-fluorophenyl)amino)-4-(ethyl(tetrahydro-2H-pyran-4-yl)amino)-2-fluorophenyl)-4-methoxybutanoic acid] and CCC(CC(=O)O)c1ccc(N(CCOC)C2CCOCC2)c(Nc2ccc(Cl)cc2)c1 (single isomer, unassigned) [Example 1257 E2, 3-(3-((4-Chlorophenyl)amino)-4-((2-methoxyethyl)(tetrahydro-2H-pyran-4-yl)amino)phenyl)pentanoic Acid] cannot be ordered by IC50: under 0.005 µM for the first, under 0.005 µM for the second.

CCC(CC(=O)O)c1ccc(N(CCOC)C2CCOCC2)c(NC(=O)Nc2ccc(C)cc2)c1 (single isomer, unassigned) [Example 1264 E2, 3-(4-((2-Methoxyethyl)(tetrahydro-2H-pyran-4-yl)amino)-3-(3-(p-tolyl)ureido)phenyl)pentanoic Acid] and COCC(CC(=O)O)c1ccc(N2CCOC(C)C2)c(Nc2ccc(Cl)cc2)c1 (single isomer, unassigned) [Example 1311 D1, 3-(3-((4-Chlorophenyl)amino)-4-(2-methylmorpholino)phenyl)-4-methoxybutanoic Acid] cannot be ordered by IC50: over 0.05 µM for the first, over 0.05 µM for the second.

COCC(CC(=O)O)c1ccc(N2CCOC(C)C2)c(NC(=O)Nc2ccc(Cl)cc2F)c1 (single isomer, unassigned) [Example 1314 D2, 3-(3-(3-(4-Chloro-2-fluorophenyl)ureido)-4-(2-methylmorpholino)phenyl)-4-methoxybutanoic Acid] and COCC(CC(=O)O)c1ccc(N2CCOC(C)(C)C2)c(Nc2ccc(Cl)cc2)c1 (single isomer, unassigned) [Example 1315 E2, 3-(3-((4-Chlorophenyl)amino)-4-(2,2-dimethylmorpholino)phenyl)-4-methoxybutanoic Acid] cannot be ordered by IC50: over 0.05 µM for the first, over 0.05 µM for the second.

Going from COCC(CC(=O)O)c1ccc(N2CCOC(C)(C)C2)c(NC(=O)Nc2ccc(Cl)cc2F)c1 (single isomer, unassigned) [Example 1318 E2, 3-(3-(3-(4-Chloro-2-fluorophenyl)ureido)-4-(2,2-dimethylmorpholino)phenyl)-4-methoxybutanoic Acid] to CCC(CC(=O)O)c1ccc(N2CCOC(C)(C)C2)c(Nc2ccc(Cl)cc2)c1 (single isomer, unassigned) [Example 1319 E2, 3-(3-((4-Chlorophenyl)amino)-4-(2,2-dimethylmorpholino)phenyl)pentanoic Acid], the IC50 falls from over 0.05 µM to under 0.05 µM. The second is the more potent here.

CCC(CC(=O)O)c1ccc(N2CCOC(C)(C)C2)c(NC(=O)Nc2ccc(Cl)cc2F)c1 (single isomer, unassigned) [Example 1322 E2, 3-(3-(3-(4-Chloro-2-fluorophenyl)ureido)-4-(2,2-dimethylmorpholino)phenyl)pentanoic Acid] and COC[C@@H](CC(=O)O)c1ccc(N2CCOc3ccccc32)c(Nc2ccc(C#N)cc2)c1 (single isomer, unassigned) [Example 1358] cannot be ordered by IC50: over 0.05 µM for the first, over 0.05 µM for the second.

Going from COC[C@H](CC(=O)O)c1ccc(N2CCOc3ccccc32)c(Nc2ccc(C#N)cc2)c1 (single isomer, unassigned) [Example 1359] to CCN(c1ccc(C(COC(C)C)CC(=O)O)cc1Nc1ccc(F)cc1)C1CCS(=O)(=O)CC1 (centres unmarked) [Example 340], the IC50 falls from over 0.05 µM to under 0.05 µM.

“(R)-3-(3-((4-chlorophenyl)amino)- 4-((1,1-dioxidotetrahydro-2H- thiopyran-4-yl)(ethyl)amino) phenyl)-4-isopropoxybutanoic acid [Example 330]” and “(R)-3-(3-((4-cyano-3- methylphenyl)amino)-4- (ethyl(tetrahydro-2H-pyran-4- yl)amino)phenyl)-4- methoxybutanoic acid [Example 391]” cannot be ordered by IC50: under 0.005 µM for the first, under 0.05 µM for the second.

“(R)-3-(4-((1,1-dioxidotetrahydro- 2H-thiopyran-4-yl)(ethyl)amino)- 3-((2-ethoxypyrimidin-5- yl)amino)phenyl)-4- isopropoxybutanoic acid [Example 333]” and “(R)-3-(4-((1,1-dioxidotetrahydro- 2H-thiopyran-4-yl)(ethyl)amino)- 3-((2-methoxypyrimidin-5- yl)amino)phenyl)-4- isopropoxybutanoic acid [Example 332]” cannot be ordered by IC50: over 0.05 µM for the first, over 0.05 µM for the second.

First: (R)-3-(4-((1,1-dioxidotetrahydro- 2H-thiopyran-4-yl)(ethyl)amino)- 3-((4-fluorophenyl)amino)phenyl)- 4-isopropoxybutanoic acid [Example 331]
Second: (R)-3-(4-(ethyl(tetrahydro-2H- pyran-4-yl)amino)-3-((2- (tetrahydro-2H-pyran-4- yl)pyrimidin-5-yl)amino) phenyl)-4-methoxybutanoic acid [Example 403]
The IC50 of the first is lower: under 0.05 µM for the first, over 0.05 µM for the second.

“(R)-3-(4-(ethyl(tetrahydro-2H- pyran-4-yl)amino)-3-((3- (1,1,2,2-tetrafluoroethoxy) phenyl)amino)phenyl)-4- methoxybutanoic acid [Example 398]” and “(S)-3-(3-((4-chlorophenyl)amino)- 4-((1,1-dioxidotetrahydro-2H- thiopyran-4-yl)(ethyl)amino) phenyl)-4-isopropoxybutanoic acid [Example 325]” cannot be ordered by IC50: under 0.005 µM for the first, under 0.005 µM for the second.

Going from “(S)-3-(3-((4-cyano-3- ethoxyphenyl)amino)-4- (ethyl(tetrahydro-2H-pyran- 4-yl)amino)phenyl)-4- methoxybutanoic acid [Example 380]” to “(S)-3-(4-((1,1-dioxidotetrahydro- 2H-thiopyran-4-yl)(ethyl)amino)- 3-((2-ethoxypyrimidin-5-yl)amino) phenyl)-4-isopropoxybutanoic acid [Example 328]”, the IC50 rises from under 0.05 µM to over 0.05 µM.

First: (S)-3-(4-((1,1-dioxidotetrahydro- 2H-thiopyran-4-yl)(ethyl)amino)- 3-((2-methoxypyrimidin-5- yl)amino)phenyl)-4- isopropoxybutanoic acid [Example 327]
Second: (S)-3-(4-((1,1-dioxidotetrahydro- 2H-thiopyran-4-yl)(ethyl)amino)- 3-((4-fluorophenyl)amino)phenyl)- 4-isopropoxybutanoic acid [Example 326]
The IC50 of the first is higher: over 0.05 µM for the first, under 0.05 µM for the second. The second is the more potent here.

For “(S)-3-(4-(ethyl(tetrahydro- 2H-pyran-4-yl)amino)-3-((2- (tetrahydro-2H-pyran-4- yl)pyrimidin-5-yl)amino) phenyl)-4-methoxybutanoic acid [Example 366]”, the IC50 was over 0.05 µM.

From patent publication US10399933B2, “Inhibitors of indoleamine-2,3-dioxygenase for the treatment of cancer” (BRISTOL-MYERS SQUIBB COMPANY, priority 2015, dated 2019)
